Reference: PubChem BioAssay AID248 (DTP/NCI, 2004)
Where “and” joins values, the source holds several entries; their conditions need not be identical. Identical values can stand only once. Inconclusive results and toxic doses are left out. No stated cut-off is given here; in the data, active means T/C of 150% or more; inactive means T/C below 125%.

System: L1210 leukemia ip in BDF1 mice, survival T/C
Assay: NCI In Vivo Anticancer Drug Screen. Data for tumor model L1210 Leukemia (intraperitoneal) in B6D2F1 (BDF1) mice
Settings: endpoint: mean survival time, higher = longer survival
Summary of the method: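 Each compound was tested against a transplantable tumor grown in mice. The endpoint was survival, with treated animals benchmarked against vehicle controls as a simple ratio.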

[1] = dose: 100.0 mg/kg/injection, schedule: Q01DX009 (ip), vehicle: Klucel (hydroxypropylcellulose) (HPC)
[2] = dose: 100.0 mg/kg/injection, schedule: Q04DX003 (ip), vehicle: Klucel (hydroxypropylcellulose) (HPC)
[3] = dose: 200.0 mg/kg/injection, schedule: Q01DX009 (ip), vehicle: Klucel (hydroxypropylcellulose) (HPC)
[4] = dose: 200.0 mg/kg/injection, schedule: Q04DX003 (ip), vehicle: Klucel (hydroxypropylcellulose) (HPC)
[5] = dose: 400.0 mg/kg/injection, schedule: Q01DX009 (ip), vehicle: Klucel (hydroxypropylcellulose) (HPC)
[6] = dose: 400.0 mg/kg/injection, schedule: Q04DX003 (ip), vehicle: Klucel (hydroxypropylcellulose) (HPC)
[7] = dose: 100.0 mg/kg/injection, schedule: Q01DX001 (ip), vehicle: saline
[8] = dose: 200.0 mg/kg/injection, schedule: Q01DX001 (ip), vehicle: saline
[9] = dose: 400.0 mg/kg/injection, schedule: Q01DX001 (ip), vehicle: saline
[10] = dose: 25.0 mg/kg/injection, schedule: Q01DX009 (ip), vehicle: saline with Tween-80
[11] = dose: 25.0 mg/kg/injection, schedule: Q04DX003 (ip), vehicle: saline with Tween-80
[12] = dose: 100.0 mg/kg/injection, schedule: Q01DX009 (ip), vehicle: saline with Tween-80
[13] = dose: 200.0 mg/kg/injection, schedule: Q01DX009 (ip), vehicle: saline with Tween-80
[14] = dose: 400.0 mg/kg/injection, schedule: Q01DX009 (ip), vehicle: saline with Tween-80
[15] = dose: 100.0 mg/kg/injection, schedule: Q04DX003 (ip), vehicle: saline with Tween-80
[16] = dose: 100.0 mg/kg/injection, schedule: Q01DX001 (ip), vehicle: Klucel (hydroxypropylcellulose) (HPC)

Measured: T/C

CCC(Cl)COP(=O)(OCC(Cl)CC)C(OP(=S)(OCC(Cl)CC)OCC(Cl)CC)c1ccc(Cl)c(Cl)c1 (centres undefined)
inactive: dose: 25.0 mg/kg/injection, schedule: Q04DX002 (sc), vehicle: olive oil, sesame oil, peanut oil 123 % of control | dose: 50.0 mg/kg/injection, schedule: Q04DX002 (sc), vehicle: olive oil, sesame oil, peanut oil 108 % of control | dose: 100.0 mg/kg/injection, schedule: Q04DX002 (sc), vehicle: olive oil, sesame oil, peanut oil 118 % of control

CN(C(=O)N(C)S(=O)(=O)c1ccccc1)S(=O)(=O)c1ccccc1
inactive: dose: 75.0 mg/kg/injection, schedule: Q04DX003 (ip), vehicle: Klucel (hydroxypropylcellulose) (HPC) 100 % of control | dose: 150.0 mg/kg/injection, schedule: Q04DX003 (ip), vehicle: Klucel (hydroxypropylcellulose) (HPC) 101 % of control | dose: 300.0 mg/kg/injection, schedule: Q04DX003 (ip), vehicle: Klucel (hydroxypropylcellulose) (HPC) 94 % of control

O=C1c2c(I)c(I)c(I)c(I)c2C(=O)N1CCO
inactive: [1] 92 % of control | [2] 94 % of control | [3] 97 % of control | [4] 97 % of control | [5] 104 % of control | [6] 92 % of control

O=C(O)c1c(Br)c(Br)c(Br)c(Br)c1C(=O)Nc1cc([N+](=O)[O-])ccc1O
inactive: [1] 106 % of control | [3] 122 % of control | [5] 101 % of control

Cc1cc(Br)c(C)cc1Br
inactive: dose: 50.0 mg/kg/injection, schedule: Q01DX001 (ip), vehicle: saline 100 % of control | [7] 100 % of control | [1] 98 % of control | [2] 100 % of control | [8] 103 % of control | [3] 93 % of control | [4] 98 % of control | [9] 103 % of control | [5] 90 % of control | [6] 100 % of control

N#CSc1ccc(NN)cc1
inactive: dose: 3.0 mg/kg/injection, schedule: Q01DX009 (ip), vehicle: saline with Tween-80 97 % of control | dose: 6.0 mg/kg/injection, schedule: Q01DX009 (ip), vehicle: saline with Tween-80 90 % of control | dose: 6.0 mg/kg/injection, schedule: Q04DX004 (ip), vehicle: saline with Tween-80 100 % of control | dose: 12.0 mg/kg/injection, schedule: Q01DX009 (ip), vehicle: saline with Tween-80 95 % of control | dose: 12.0 mg/kg/injection, schedule: Q04DX004 (ip), vehicle: saline with Tween-80 98 % of control | [10] 96 % of control | [11] 93 % of control | dose: 25.0 mg/kg/injection, schedule: Q04DX004 (ip), vehicle: saline with Tween-80 102 % of control

NC(=O)C1NC(=O)NC1=O (centres undefined)
inactive: [12] 88 % of control | [13] 93 % of control | [14] 97 % of control

CCN(CC)C(=S)SS(C)(=O)=O
inactive: [7] 101 % of control | dose: 100.0 mg/kg/injection, schedule: Q04DX003 (ip), vehicle: acetone 97 % of control | [8] 97 % of control | dose: 200.0 mg/kg/injection, schedule: Q04DX003 (ip), vehicle: acetone 103 % of control | [9] 97 % of control | dose: 400.0 mg/kg/injection, schedule: Q04DX003 (ip), vehicle: acetone 101 % of control

O=C(CCN1CCCCC1)c1cc(Cl)ccc1Cl
inactive: dose: 12.5 mg/kg/injection, schedule: Q01DX009 (ip), vehicle: saline 93 % of control | dose: 25.0 mg/kg/injection, schedule: Q01DX009 (ip), vehicle: saline 97 % of control and 98 % of control | dose: 25.0 mg/kg/injection, schedule: Q04DX002 (ip), vehicle: saline 103 % of control | dose: 50.0 mg/kg/injection, schedule: Q01DX009 (ip), vehicle: saline 93 % of control | dose: 50.0 mg/kg/injection, schedule: Q04DX002 (ip), vehicle: saline 98 % of control | dose: 100.0 mg/kg/injection, schedule: Q01DX009 (ip), vehicle: saline 91 % of control | dose: 100.0 mg/kg/injection, schedule: Q04DX002 (ip), vehicle: saline 100 % of control and 88 % of control

CC(=O)Nc1cc(C)ns1
inactive: dose: 50.0 mg/kg/injection, schedule: Q01DX001 (ip), vehicle: carboxymethylcellulose (CMC) 104 % of control | dose: 100.0 mg/kg/injection, schedule: Q01DX001 (ip), vehicle: carboxymethylcellulose (CMC) 104 % of control | dose: 200.0 mg/kg/injection, schedule: Q01DX001 (ip), vehicle: carboxymethylcellulose (CMC) 101 % of control | dose: 400.0 mg/kg/injection, schedule: Q01DX001 (ip), vehicle: carboxymethylcellulose (CMC) 98 % of control

CCOC(=O)NC(C)(C)Cc1ccccc1
inactive: [10] 91 % of control | [11] 101 % of control | dose: 50.0 mg/kg/injection, schedule: Q01DX009 (ip), vehicle: saline with Tween-80 98 % of control | dose: 50.0 mg/kg/injection, schedule: Q04DX003 (ip), vehicle: saline with Tween-80 106 % of control | [12] 96 % of control | [15] 97 % of control and 103 % of control

COc1cc2c(O)cc(C(=O)OC(C)(C)C)c(-c3cc(OC)c(OC)c(OC)c3)c2cc1OC
inactive: [7] 97 % of control | [8] 95 % of control | [9] 89 % of control

CC(=O)OC1CCC2(C)C(=CC(=O)C3C4CCC(C(C)C)C4CCC32)C1 (centres undefined)
inactive: dose: 75.0 mg/kg/injection, schedule: Q01DX009 (sc), vehicle: steriod suspending solution 95 % of control | dose: 75.0 mg/kg/injection, schedule: Q04DX003 (sc), vehicle: steriod suspending solution 94 % of control | dose: 150.0 mg/kg/injection, schedule: Q01DX009 (sc), vehicle: steriod suspending solution 109 % of control | dose: 150.0 mg/kg/injection, schedule: Q04DX003 (sc), vehicle: steriod suspending solution 98 % of control | dose: 300.0 mg/kg/injection, schedule: Q01DX009 (sc), vehicle: steriod suspending solution 108 % of control | dose: 300.0 mg/kg/injection, schedule: Q04DX003 (sc), vehicle: steriod suspending solution 94 % of control

COc1ccc(/C=C/c2cnnc3ccccc23)cc1OC
inactive: [16] 113 % of control | dose: 200.0 mg/kg/injection, schedule: Q01DX001 (ip), vehicle: Klucel (hydroxypropylcellulose) (HPC) 98 % of control

COc1ccc(NC(=O)Nc2ccccc2OC)cc1
inactive: [12] 98 % of control | [15] 105 % of control | [13] 101 % of control | dose: 200.0 mg/kg/injection, schedule: Q04DX003 (ip), vehicle: saline with Tween-80 97 % of control | [14] 98 % of control | dose: 400.0 mg/kg/injection, schedule: Q04DX003 (ip), vehicle: saline with Tween-80 103 % of control

CN(CCCN1C(=O)c2ccccc2C1=O)c1ccc(N=O)cc1
inactive: dose: 25.0 mg/kg/injection, schedule: Q01DX001 (ip), vehicle: Klucel (hydroxypropylcellulose) (HPC) 101 % of control | dose: 50.0 mg/kg/injection, schedule: Q01DX001 (ip), vehicle: Klucel (hydroxypropylcellulose) (HPC) 95 % of control | [16] 92 % of control and 91 % of control
